{"source": "patent US9708247B2", "about": "“Modulators of the eIF2alpha pathway” (The Regents of the University of California, priority 2013, dated 2017)", "type_in_all_cases": "cell-based, human", "key": {"ATF4 luciferase reporter": {"tested_on": "ATF4 luciferase reporter", "test": "ATF4 luciferase reporter assay (Cell-luc) in HEK293T cells", "details": "ER stressor alone, 384 well format"}, "eIF2α (p-Ser51)": {"tested_on": "eIF2α (p-Ser51)", "test": "AlphaScreen SureFire eIF2α(p-Ser51) assay in U2OS cells", "details": "U2OS cells, ER stressor alone, after 120 minutes", "procedure": "U2OS cells were plated on 96 well plates and left to recover overnight. Cells were treated with either with 2 μg/ml tunicamycin or 100 nM thapsigargin in the presence or absence of 100 nM ISRIB or with ISRIB alone for the indicated and the level of eIF2α phosphorylation was determined using the AlphaScreen SureFire eIF2α(p-Ser51) Assay kit (Perkin Elmer) following the manufacturer's recommendations. Plates were read in an Envision Xcite Multilabel Reader using the standard Alpha Screen settings."}, "global translation": {"tested_on": "global translation", "test": "Metabolic labeling (35S-methionine incorporation) in HEK293T cells", "details": "100 nM thapsigargin alone", "procedure": "HEK293T cells were seeded on 12 well plates, allowed to recover overnight and treated for the indicated times with the indicated compounds. The cells were subsequently switched to media lacking methionine and cysteine supplemented with the indicated compounds and 50 μCi of ^35S-methionine (Perkin Elmer) for 20 min. Cells were lysed by addition of SDS-PAGE loading buffer. Lysates were sonicated and equal amounts were loaded on SDS-PAGE gels (BioRad). The gel was dried and radioactive methionine incorporation was detected by exposure to a phosphor-screen and visualized with a Typhoon 9400 Variable Mode Imager (GE Healthcare)."}}}
{"smiles": "C/C=C(/C)C(=O)O[C@H]1C(C)=C2[C@H]([C@@H]1OC(=O)CCCCCCC)[C@@](C)(OC(C)=O)C[C@H](OC(=O)CCC)[C@@]1(O)[C@H]2OC(=O)[C@@]1(C)O", "note": "[Thapsigargin, thapsigargin, reference compound]", "values": [{"measurement": "induction in luciferase activity", "setting": "ATF4 luciferase reporter", "result": 4.9, "unit": "fold"}, {"measurement": "increase of eIF2α phosphorylation", "setting": "eIF2α (p-Ser51)", "result": 7, "unit": "fold"}, {"measurement": "drop in translation", "setting": "global translation", "result": 40, "unit": "%"}]}
